Data taken from PubChem BioAssay AID330 (DTP/NCI, 2004).
“And” between values parts separate entries of the source, which are not always exact repeats. Equal values may be shown once. Toxic doses and inconclusive results are not listed. The calls were made as follows: active = survival T/C of 150% or more; inactive = T/C below 125% in these data.

Tested on: P388 leukemia ip, CD2F1 mice, survival T/C
Assay: NCI In Vivo Anticancer Drug Screen. Data for tumor model P388 Leukemia (intraperitoneal) in CD2F1 (CDF1) mice
Conditions: endpoint: median survival time, higher = longer survival
Summary of the method: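 Mice carrying the transplanted tumor received test compound or vehicle. Survival was recorded in each group, and the value is the treated-group measurement divided by that of the vehicle-treated control group.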

[1] = dose: 50.0 mg/kg/injection, schedule: Q01DX005 (ip), vehicle: saline with Tween-80
[2] = dose: 100.0 mg/kg/injection, schedule: Q01DX005 (ip), vehicle: saline with Tween-80
[3] = dose: 200.0 mg/kg/injection, schedule: Q01DX005 (ip), vehicle: saline with Tween-80
[4] = dose: 60.0 mg/kg/injection, schedule: Q01DX005 (ip), vehicle: saline with Tween-80
[5] = dose: 120.0 mg/kg/injection, schedule: Q01DX005 (ip), vehicle: saline with Tween-80
[6] = dose: 240.0 mg/kg/injection, schedule: Q01DX005 (ip), vehicle: saline with Tween-80
[7] = dose: 50.0 mg/kg/injection, schedule: Q01DX009 (ip), vehicle: saline with Tween-80
[8] = dose: 50.0 mg/kg/injection, schedule: Q01DX009 (ip), vehicle: suspension in saline
[9] = dose: 100.0 mg/kg/injection, schedule: Q01DX009 (ip), vehicle: suspension in saline
[10] = dose: 200.0 mg/kg/injection, schedule: Q01DX009 (ip), vehicle: suspension in saline
[11] = dose: 50.0 mg/kg/injection, schedule: Q01DX009 (ip), vehicle: Klucel (hydroxypropylcellulose) (HPC)
[12] = dose: 50.0 mg/kg/injection, schedule: Q01DX009 (ip), vehicle: saline
[13] = dose: 100.0 mg/kg/injection, schedule: Q01DX009 (ip), vehicle: saline
[14] = dose: 200.0 mg/kg/injection, schedule: Q01DX009 (ip), vehicle: saline
[15] = dose: 100.0 mg/kg/injection, schedule: Q01DX009 (ip), vehicle: Klucel (hydroxypropylcellulose) (HPC)
[16] = dose: 200.0 mg/kg/injection, schedule: Q01DX009 (ip), vehicle: Klucel (hydroxypropylcellulose) (HPC)

Measured: T/C

COc1ccc(CC2c3cc4c(cc3CCN2C)OCO4)c(/C=C\c2ccccc2)c1OC (centres undefined)
inactive: dose: 6.25 mg/kg/injection, schedule: Q01DX001 (ip), vehicle: saline + alcohol 92 % of control | dose: 12.5 mg/kg/injection, schedule: Q01DX001 (ip), vehicle: saline + alcohol 93 % of control | dose: 25.0 mg/kg/injection, schedule: Q01DX001 (ip), vehicle: saline + alcohol 90 % of control | dose: 200.0 mg/kg/injection, schedule: Q01DX001 (ip), vehicle: saline + alcohol 87 % of control

CCOC(=O)CC(=O)Nc1cc2ccc(OC)c(OC)c2cc1C(=O)OCC
inactive: dose: 25.0 mg/kg/injection, schedule: Q01DX009 (ip), vehicle: other 88 % of control | dose: 50.0 mg/kg/injection, schedule: Q01DX009 (ip), vehicle: other 88 % of control | dose: 100.0 mg/kg/injection, schedule: Q01DX009 (ip), vehicle: other 96 % of control | dose: 200.0 mg/kg/injection, schedule: Q01DX009 (ip), vehicle: other 87 % of control | dose: 400.0 mg/kg/injection, schedule: Q01DX009 (ip), vehicle: other 105 % of control

Cc1nc2c(N)cc(Cl)cc2[nH]1
inactive: dose: 50.0 mg/kg/injection, schedule: Q01DX005 (ip), vehicle: saline + Tween-80 + alcohol 101 % of control | [1] 103 % of control | dose: 100.0 mg/kg/injection, schedule: Q01DX005 (ip), vehicle: saline + Tween-80 + alcohol 110 % of control | [2] 113 % of control | [3] 120 % of control

C/C(=N\N=C(N)N)c1ccccc1
inactive: dose: 6.25 mg/kg/injection, schedule: Q01DX009 (ip), vehicle: saline 110 % of control | dose: 12.5 mg/kg/injection, schedule: Q01DX009 (ip), vehicle: saline 101 % of control

COC(=O)NCN(Cc1ccccc1)C(=O)CCCCCN
inactive: [4] 104 % of control | [5] 100 % of control | [6] 98 % of control

CN1CCC(=C(C#N)C#N)CC1
inactive: dose: 25.0 mg/kg/injection, schedule: Q01DX009 (ip), vehicle: saline with Tween-80 120 % of control | [7] 115 % of control

Cc1ccc(NC(=S)SCc2ccco2)cc1Cl
inactive: [8] 100 % of control | [9] 103 % of control | [10] 109 % of control

Clc1cncc(N2CCNCC2)n1
inactive: dose: 12.5 mg/kg/injection, schedule: Q01DX009 (ip), vehicle: Klucel (hydroxypropylcellulose) (HPC) 100 % of control | dose: 25.0 mg/kg/injection, schedule: Q01DX009 (ip), vehicle: Klucel (hydroxypropylcellulose) (HPC) 99 % of control | [11] 108 % of control and 91 % of control

COc1c2ccc(OCC=C(C)C)cc2nc2occc12
inactive: dose: 7.0 mg/kg/injection, schedule: Q01DX005 (ip), vehicle: Klucel + Tween-80 106 % of control | dose: 14.0 mg/kg/injection, schedule: Q01DX005 (ip), vehicle: Klucel + Tween-80 103 % of control | dose: 28.0 mg/kg/injection, schedule: Q01DX005 (ip), vehicle: Klucel + Tween-80 99 % of control | dose: 56.0 mg/kg/injection, schedule: Q01DX005 (ip), vehicle: Klucel + Tween-80 103 % of control

ClC(Cl)=Nc1cc(Cl)c(Cl)cc1Cl
inactive: [12] 99 % of control | [13] 90 % of control | [14] 97 % of control

CCOC(=O)C1=CC(C)(C)OC1=O
inactive: [4] 99 % of control and 106 % of control | [5] 110 % of control and 118 % of control | [6] 101 % of control and 124 % of control

Nc1nc2c(C(=O)N3CCCC3)nnn2c2cccc(Cl)c12
inactive: [4] 107 % of control | [5] 106 % of control | [6] 106 % of control

O=C(Oc1ccccc1)c1ccc(C(=O)Oc2ccccc2)cc1
inactive: [11] 108 % of control | [15] 102 % of control | [16] 101 % of control

CCOC(=O)/C=C1/Nc2ccc([N+](=O)[O-])cc2NC1=O (tested in a mixture with another compound)
inactive: dose: 50.0 mg/kg/injection, schedule: Q01DX009 (ip), vehicle: distilled water + Tween-80 + alcohol 86 % of control | dose: 100.0 mg/kg/injection, schedule: Q01DX009 (ip), vehicle: distilled water + Tween-80 + alcohol 94 % of control | dose: 200.0 mg/kg/injection, schedule: Q01DX009 (ip), vehicle: distilled water + Tween-80 + alcohol 103 % of control

CN(Cc1nc(-c2ccccc2)no1)c1nc(-c2ccccc2)no1
inactive: dose: 100.0 mg/kg/injection, schedule: Q01DX001 (ip), vehicle: Klucel (hydroxypropylcellulose) (HPC) 97 % of control | dose: 200.0 mg/kg/injection, schedule: Q01DX001 (ip), vehicle: Klucel (hydroxypropylcellulose) (HPC) 109 % of control | dose: 400.0 mg/kg/injection, schedule: Q01DX001 (ip), vehicle: Klucel (hydroxypropylcellulose) (HPC) 95 % of control

COC1=C(N)C(=O)c2cccnc2C1=O
inactive: dose: 3.13 mg/kg/injection, schedule: Q01DX009 (ip), vehicle: DMSO 92 % of control | dose: 6.25 mg/kg/injection, schedule: Q01DX009 (ip), vehicle: DMSO 92 % of control | dose: 12.5 mg/kg/injection, schedule: Q01DX009 (ip), vehicle: DMSO 100 % of control | dose: 25.0 mg/kg/injection, schedule: Q01DX009 (ip), vehicle: DMSO 109 % of control

CN(C)C1=NS(=O)(=O)c2ccccc21
inactive: [1] 100 % of control | [2] 106 % of control | [3] 93 % of control

COc1c2c(c(OC)c3c1c(=O)c1ccccc1n3C)OCO2
inactive: [1] 104 % of control | [2] 104 % of control | [3] 100 % of control

Nc1nc(Cc2ccccc2)cc(-c2cc(Cc3ccccc3)nc(N)n2)n1
inactive: dose: 60.0 mg/kg/injection, schedule: Q01DX005 (ip), vehicle: Klucel (hydroxypropylcellulose) (HPC) 90 % of control | dose: 120.0 mg/kg/injection, schedule: Q01DX005 (ip), vehicle: Klucel (hydroxypropylcellulose) (HPC) 95 % of control | dose: 240.0 mg/kg/injection, schedule: Q01DX005 (ip), vehicle: Klucel (hydroxypropylcellulose) (HPC) 97 % of control

O=C(O)CC(NC(=O)CCl)C(=O)O (centres undefined)
inactive: [12] 99 % of control and 101 % of control | [13] 100 % of control and 101 % of control | [14] 101 % of control and 92 % of control

COC1=CC(=O)C(c2cc(OC(C)=O)c(OC)cc2OC(C)=O)=CC1=O
inactive: dose: 6.0 mg/kg/injection, schedule: Q01DX005 (ip), vehicle: saline + Tween-80 + alcohol 108 % of control | dose: 12.0 mg/kg/injection, schedule: Q01DX005 (ip), vehicle: saline + Tween-80 + alcohol 100 % of control | dose: 25.0 mg/kg/injection, schedule: Q01DX005 (ip), vehicle: saline + Tween-80 + alcohol 105 % of control

CN(C)Sc1ccc(Cl)cc1[N+](=O)[O-]
inactive: [7] 109 % of control | dose: 100.0 mg/kg/injection, schedule: Q01DX009 (ip), vehicle: saline with Tween-80 100 % of control | [13] 97 % of control | dose: 200.0 mg/kg/injection, schedule: Q01DX009 (ip), vehicle: saline with Tween-80 106 % of control | [14] 97 % of control

CN1CCN(CC2C(=O)C3CCC2C3)CC1 (centres undefined)
inactive: [1] 93 % of control | [2] 101 % of control

CC1=C(/C=C/C(C)=C/C=C/C(C)=C/CO)C(C)(C)CCC1
inactive: [1] 98 % of control | [2] 94 % of control | dose: 100.0 mg/kg/injection, schedule: Q04DX003 (ip), vehicle: saline with Tween-80 100 % of control | [3] 116 % of control | dose: 200.0 mg/kg/injection, schedule: Q04DX003 (ip), vehicle: saline with Tween-80 100 % of control

Cc1ccc(NCCN(C)CC(C)O)c2c(=O)c3ccc(Cl)cc3sc12 (centres undefined)
inactive: dose: 50.0 mg/kg/injection, schedule: Q01DX005 (ip), vehicle: Klucel (hydroxypropylcellulose) (HPC) 102 % of control | dose: 100.0 mg/kg/injection, schedule: Q01DX005 (ip), vehicle: Klucel (hydroxypropylcellulose) (HPC) 101 % of control | dose: 200.0 mg/kg/injection, schedule: Q01DX005 (ip), vehicle: Klucel (hydroxypropylcellulose) (HPC) 95 % of control

Cc1c(C)[n+](=O)c2ccc(/C=[N+](/[O-])CCO)cc2n1[O-]
inactive: [11] 99 % of control | [15] 99 % of control | [16] 107 % of control

S=C(Nc1ccc(I)cc1)SCc1ccco1
inactive: [8] 90 % of control | [9] 112 % of control | [10] 109 % of control

COC(=O)Nc1nc2ccc(CCC(=O)c3c(C)oc(C)c3-c3ccc(NC(C)=O)cc3)cc2[nH]1
inactive: [4] 99 % of control | [5] 99 % of control

CC(/C=C/c1ccccc1)=N\Nc1ccc(Cl)c(Cl)c1
inactive: [11] 102 % of control | [15] 102 % of control | [16] 100 % of control
